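Briefly, cells in 96-well plates were exposed to five compound concentrations for 48 h, and endpoints were estimated by linear interpolation. GI50 = concentration required for 50% inhibition of growth.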 Active and inactive are the calls of the source. Cut-off read from the data, not from the text of the source: active = GI50 up to about 1.1 µM and inactive = higher.
What was measured:
Test in all cases: DTP human tumour cell line panel, 48 h
[1] = test system: MDA-MB-231
[2] = test system: PC-3
[3] = test system: SF-539
[4] = test system: SF-268
[5] = test system: HCT-116
[6] = test system: HOP-62
[7] = test system: SN12C
[8] = test system: NCI-H23
[9] = test system: RXF 393
[10] = test system: Malme-3M
[11] = test system: A549
[12] = test system: NCI-H460
[13] = test system: K562
[14] = test system: MOLT-4
[15] = test system: HCC 2998
[16] = test system: EKVX
[17] = test system: SW-620
[18] = test system: Hs-578T
[19] = test system: KM12
[20] = test system: IGROV-1

SMILES | GI50 [1] | GI50 [2] | GI50 [3] | GI50 [4] | GI50 [5] | GI50 [6] | GI50 [7] | GI50 [8] | GI50 [9] | GI50 [10] | GI50 [11] | GI50 [12] | GI50 [13] | GI50 [14] | GI50 [15] | GI50 [16] | GI50 [17] | GI50 [18] | GI50 [19] | GI50 [20]
CN(C)CCn1c(=O)c2ccc3c4c(nn3CCN(C)C)c3ccccc3n(c1=O)c24 | 0.637 µM (active) | 0.351 µM (active) | 0.571 µM (active) | 0.211 µM (active) | 0.193 µM (active) | 0.164 µM (active) | 0.148 µM (active) | 0.449 µM (active) | 0.275 µM (active) | 0.887 µM (active) | 0.134 µM (active) | < 0.122 µM (active) | 0.146 µM (active) | < 0.01 µM (active) | 0.129 µM (active) | < 0.0113 µM (active) | < 0.138 µM (active) | 0.526 µM (active) | 0.205 µM (active) | 
CC(C)(C)OC(=O)N1CCc2c(n(C/C=C/c3ccccc3)[nH]c2=O)C1 | > 100 µM (inactive) | > 100 µM (inactive) | > 100 µM (inactive) | > 100 µM (inactive) | > 100 µM (inactive) | > 80.7 µM (inactive) | > 100 µM (inactive) | > 100 µM (inactive) | > 100 µM (inactive) | > 75.2 µM (inactive) | > 100 µM (inactive) | > 100 µM (inactive) | 46.6 µM (inactive) | 33.6 µM (inactive) | > 100 µM (inactive) | > 83.8 µM (inactive) | > 100 µM (inactive) | > 100 µM (inactive) | > 100 µM (inactive) | > 100 µM (inactive)
NCCN1C(=O)CN=C(c2ccc(Cl)cc2)c2cc(Cl)ccc21 | 14.3 µM (inactive) | 14.8 µM (inactive) | 17.4 µM (inactive) | 14.4 µM (inactive) | 16.2 µM (inactive) | 17.3 µM (inactive) | 22.5 µM (inactive) | 18.1 µM (inactive) | 11.5 µM (inactive) | 14.2 µM (inactive) | 17.1 µM (inactive) | 18 µM (inactive) | 16.3 µM (inactive) | 0.46 µM (active) | 16.5 µM (inactive) | 26.2 µM (inactive) | 15.7 µM (inactive) | 16.1 µM (inactive) | 17.2 µM (inactive) | 13.3 µM (inactive)
CNC(=O)CC1NC(=O)c2csc(n2)-c2ccc(-c3nc(C4=NC(C(=O)N5CCCC5C(N)=O)CO4)cs3)nc2-c2csc(n2)-c2csc(n2)C(C(C)C)NC(=O)CNC(=O)c2csc(n2)C(C(C)C)NC(=O)c2nc1sc2C (stereo not given) | 0.0153 µM (active) | 0.00489 µM (active) | 0.00113 µM (active) | 0.0625 µM (active) | 0.00114 µM (active) | 0.00826 µM (active) | 0.00398 µM (active) | 0.00239 µM (active) | 0.00386 µM (active) | > 25 µM (inactive) | 0.00724 µM (active) | 0.00194 µM (active) | 0.00239 µM (active) | 0.00728 µM (active) | 0.00762 µM (active) | 2.38 µM (inactive) | 0.00962 µM (active) | > 25 µM (inactive) | 0.0171 µM (active) | 0.00175 µM (active)
CCOc1ccc2nc(NC(NC(=O)c3cccnc3)(C(F)(F)F)C(F)(F)F)sc2c1 | 66.1 µM (inactive) | 31.7 µM (inactive) | 49.2 µM (inactive) | 56.8 µM (inactive) | 25.4 µM (inactive) |  | 25.2 µM (inactive) | 22.8 µM (inactive) | 21 µM (inactive) | 51.1 µM (inactive) | 31.4 µM (inactive) | 28.6 µM (inactive) | 38.4 µM (inactive) | 20.4 µM (inactive) | 22.4 µM (inactive) | 22.6 µM (inactive) | 46.1 µM (inactive) | > 100 µM (inactive) | 29.3 µM (inactive) | 
O=C(C/C(=N/O)C(=O)NC1=C(Cl)C(=O)c2ccccc2C1=O)CC(c1ccccc1)c1c(O)c2ccccc2oc1=O (stereo not given) | 4.57 µM (inactive) | 3.92 µM (inactive) | 8.11 µM (inactive) | 7.35 µM (inactive) | 4.51 µM (inactive) |  | 8.97 µM (inactive) | 3.63 µM (inactive) | 13.2 µM (inactive) | 2.08 µM (inactive) | 5.69 µM (inactive) | 3.15 µM (inactive) | 16.3 µM (inactive) | 17.9 µM (inactive) | 11.9 µM (inactive) | 14.5 µM (inactive) | 6.58 µM (inactive) | 6.76 µM (inactive) | 3.5 µM (inactive) | 4.52 µM (inactive)
COC(=O)c1ccc2n1C1CC3CC(CC2C3)C1 | > 100 µM (inactive) | 40 µM (inactive) | > 100 µM (inactive) | > 100 µM (inactive) | 42.6 µM (inactive) | > 100 µM (inactive) | > 100 µM (inactive) | 90.8 µM (inactive) | 21.5 µM (inactive) | > 100 µM (inactive) | > 100 µM (inactive) | > 100 µM (inactive) | 51.2 µM (inactive) | 57.5 µM (inactive) | 91.2 µM (inactive) | > 100 µM (inactive) | > 100 µM (inactive) | 16.2 µM (inactive) | > 100 µM (inactive) | > 100 µM (inactive)
O=c1cnn(C2OC(C(O)CO)C(O)C2O)c(=O)[nH]1 (stereo not given) | > 100 µM (inactive) | > 100 µM (inactive) | > 100 µM (inactive) | > 100 µM (inactive) | > 100 µM (inactive) | > 100 µM (inactive) | > 100 µM (inactive) | > 100 µM (inactive) | > 100 µM (inactive) | > 100 µM (inactive) | > 100 µM (inactive) | > 100 µM (inactive) | > 100 µM (inactive) | > 100 µM (inactive) | > 100 µM (inactive) | > 100 µM (inactive) | > 100 µM (inactive) | > 100 µM (inactive) | > 100 µM (inactive) | > 100 µM (inactive)
C[N+](C)(C)CC1CCCC1=O (stereo not given) | 1.39 µM (inactive) | 1.41 µM (inactive) | 2.98 µM (inactive) | 9.64 µM (inactive) | 1.25 µM (inactive) | 29.8 µM (inactive) | 2.64 µM (inactive) | 4.45 µM (inactive) | 2.27 µM (inactive) | 0.789 µM (active) | 19 µM (inactive) | 19.5 µM (inactive) | 0.377 µM (active) | 0.249 µM (active) | 16 µM (inactive) | 2.16 µM (inactive) | 0.383 µM (active) | 3.43 µM (inactive) | 6.59 µM (inactive) | 16 µM (inactive)
O=C1C2=Cc3ccccc3CCN2c2ccc([N+](=O)[O-])cc21 | > 100 µM (inactive) | > 100 µM (inactive) | 82.6 µM (inactive) | 91.4 µM (inactive) | > 100 µM (inactive) | > 100 µM (inactive) | 81.5 µM (inactive) | 38.5 µM (inactive) | > 100 µM (inactive) | 32.7 µM (inactive) | 31.3 µM (inactive) | 30.7 µM (inactive) | > 100 µM (inactive) | 45.7 µM (inactive) | > 100 µM (inactive) | 21.4 µM (inactive) | > 100 µM (inactive) | 64.6 µM (inactive) | > 100 µM (inactive) | > 100 µM (inactive)
CCN(CC)CCOCC1CCCN2CCCCC12 (stereo not given) | > 100 µM (inactive) | > 100 µM (inactive) | > 100 µM (inactive) | > 100 µM (inactive) | > 100 µM (inactive) | > 100 µM (inactive) | > 100 µM (inactive) | > 100 µM (inactive) | > 100 µM (inactive) | > 100 µM (inactive) | > 100 µM (inactive) | > 100 µM (inactive) | > 100 µM (inactive) | > 100 µM (inactive) | > 100 µM (inactive) | > 100 µM (inactive) | > 100 µM (inactive) | > 100 µM (inactive) | > 100 µM (inactive) | 
COc1ccccc1C(=O)OCC1CCCN2CCCCC12 (stereo not given) | 24.8 µM (inactive) | 85.5 µM (inactive) | > 100 µM (inactive) | 36.5 µM (inactive) | 40.3 µM (inactive) |  | 29.7 µM (inactive) | > 100 µM (inactive) | 22.2 µM (inactive) | 33.6 µM (inactive) | 25.8 µM (inactive) | 21.6 µM (inactive) | 33.9 µM (inactive) | 38.5 µM (inactive) | 17.8 µM (inactive) | 81.7 µM (inactive) | > 100 µM (inactive) | 59.7 µM (inactive) | 18.2 µM (inactive) | 
COc1cc(/C=C2\CC3C4CC[C@H]5C[C@@H](O)CC[C@]5(C)C4CC[C@]3(C)\C2=N\O)cc(OC)c1OC (stereo not given in full) | 14.3 µM (inactive) | 5.43 µM (inactive) | 10.8 µM (inactive) | 24 µM (inactive) | 6.19 µM (inactive) | 12 µM (inactive) | 13.7 µM (inactive) | 15.6 µM (inactive) | 7.74 µM (inactive) | 16.7 µM (inactive) | 7 µM (inactive) | 8.05 µM (inactive) | 4.66 µM (inactive) | 5.33 µM (inactive) | 10.1 µM (inactive) | 8.81 µM (inactive) | 18.2 µM (inactive) | 8.3 µM (inactive) | 6.9 µM (inactive) | 23 µM (inactive)
COC(=O)c1ccc(/C=N/c2ccc(S(N)(=O)=O)cc2)cc1 | > 100 µM (inactive) | > 100 µM (inactive) | 38.2 µM (inactive) | > 100 µM (inactive) | 37.1 µM (inactive) | > 100 µM (inactive) | 73.8 µM (inactive) | 0.0188 µM (active) | > 100 µM (inactive) | 85.5 µM (inactive) | > 100 µM (inactive) | > 100 µM (inactive) |  | 38.4 µM (inactive) | > 100 µM (inactive) | > 100 µM (inactive) |  | 38.2 µM (inactive) | > 100 µM (inactive) | 

From ChEMBL document CHEMBL1201862, “PubChem BioAssay data set” (2004)
